Results on 1 molecule are retold here after patent US6509337B1, “Arylsulfonyl Hydroxamic Acid derivatives as MMP and TNF inhibitors” (Pfizer Inc., priority 1997, dated 2003).

A word on the melting point: it is the temperature of the solid-liquid transition. For the molecule `COc1ccc(S(=O)(=O)N2CC=CC(c3ccccc3)C2C(=O)NO)cc1` (stereo not shown) [Example 2, N-hydroxy-1-(4-methoxybenzenesulfonyl)-3-phenyl-1,2,3,6-tetrahydropyridine-2-carboxamide], the melting point is 151 to 154 °C (dec.).
